In patent publication US20150105252A1, “SUBSTITUTED PYRAZOLES AS HERBICIDES” (E I DU PONT DE NEMOURS AND COMPANY, priority 2013, published 2015):
Several values for one entry are separate records, joined by “and”; a condition that tells them apart may be missing. Equal values may be shown once.

Assays:
Settings in all cases: scale 0 to 100
crabgrass, Brazil = test: Test F postemergence; format: in vivo, Digitaria horizontalis
From the text: (§1) Seeds of plant species selected from corn (Zea mays), soybean (Glycine max), velvetleaf (Abutilon theophrasti), lambsquarters (Chenopodium album), wild poinsettia (Euphorbia heterophylla), pigweed, palmer (palmer pigweed, Amaranthus palmeri), common waterhemp (Amaranthus rudis), surinam grass (Brachiaria decumbens), large crabgrass (Digitaria sanguinalis), crabgrass, Brazil (Brazilian crabgrass, Digitaria horizontalis), fall panicum (Panicum dichotomiflorum), giant foxtail (Setaria faberii), green foxtail (Setaria viridis), goosegrass (Eleusine indica), johnsongrass (Sorghum halepense), common ragweed (Ambrosia elation), barnyardgrass (Echinochloa crus-galli), southern sandbur (Cenchrus echinatus), arrowleaf sida (Sida rhombifolia), Italian ryegrass (Lolium multiflorum), dayflower, VA (Virginia (VA) dayflower, Commelina virginica), field bindweed (Convolvulus arvensis), cocklebur (common cocklebur, Xanthium strumarium), morningglory (Ipomoea coccinea), nightshade (eastern black nightshade, Solanum ptycanthum), kochia (Kochia scoparia), yellow nutsedge (Cyperus esculentus), and hairy beggarticks (Bidens pilosa), were planted into a silt loam soil and treated preemergence with test chemicals formulated in a non-phytotoxic solvent mixture which included a surfactant.
(§2) At the same time, plants from these crop and weed species and also horseweed (Canada horseweed, Conyza canadensis), smartweed (ladysthumb smartweed, Polygonum persicaria), waterhemp_RES1, (ALS & Triazine resistant common waterhemp, Amaranthus rudis), and waterhemp_RES2, (ALS & HPPD resistant common waterhemp, Amaranthus rudis) were treated with postemergence applications of test chemicals formulated in the same manner. Plants ranged in height from 2 to 18 cm for postemergence treatments (1- to 4-leaf stage). Treated plants and controls were maintained in a greenhouse for 14 to 21 days, after which time all species were compared to controls and visually evaluated. Plant response ratings, summarized in Table F, are based on a scale of 0 to 100 where 0 is no effect and 100 is complete control. A dash (-) response means no test result.

barnyardgrass = test: Test F postemergence; format: in vivo, Echinochloa crus-galli
From the text: as §1, §2

southern sandbur = test: Test F postemergence; format: in vivo, Cenchrus echinatus
From the text: as §1, §2

arrowleaf sida = test: Test F postemergence; format: in vivo, Sida rhombifolia
From the text: as §1, §2

field bindweed = test: Test F postemergence; format: in vivo, Convolvulus arvensis
From the text: as §1, §2

smartweed = test: Test F postemergence; format: in vivo, Polygonum persicaria
From the text: as §1, §2

[1] = test system: waterhemp_RES1 (ALS & Triazine resistant common waterhemp); test: Test F postemergence; format: in vivo, Amaranthus rudis
In short: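 Test chemicals in a non-phytotoxic solvent with surfactant were applied preemergence to seeds sown in silt loam, or postemergence to plants 2–18 cm tall (1- to 4-leaf stage). Plants were kept in a greenhouse for 14–21 days and then rated visually against controls on a 0 (no effect) to 100 (complete control) scale.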

cocklebur = test: Test F preemergence; format: in vivo, Xanthium strumarium
From the text: as §1, with “surfactant. […]” for “surfactant.”

SMILES | Plant response rating, Crabgrass, Brazil (crabgrass, Brazil; Postemergence, 16 g ai/ha) | Plant response rating, Crabgrass, Brazil (crabgrass, Brazil; Postemergence, 31 g ai/ha) | Plant response rating, Crabgrass, Brazil (crabgrass, Brazil; Postemergence, 125 g ai/ha) | Plant response rating, Barnyardgrass (barnyardgrass; Postemergence, 16 g ai/ha) | Plant response rating, Barnyardgrass (barnyardgrass; Postemergence, 31 g ai/ha) | Plant response rating, Barnyardgrass (barnyardgrass; Postemergence, 125 g ai/ha) | Plant response rating, Southern Sandbur (southern sandbur; Postemergence, 16 g ai/ha) | Plant response rating, Southern Sandbur (southern sandbur; Postemergence, 31 g ai/ha) | Plant response rating, Southern Sandbur (southern sandbur; Postemergence, 125 g ai/ha) | Plant response rating, Arrowleaf Sida (arrowleaf sida; Postemergence, 16 g ai/ha) | Plant response rating, Arrowleaf Sida (arrowleaf sida; Postemergence, 31 g ai/ha) | Plant response rating, Arrowleaf Sida (arrowleaf sida; Postemergence, 125 g ai/ha) | Plant response rating, Field Bindweed (field bindweed; Postemergence, 16 g ai/ha) | Plant response rating, Field Bindweed (field bindweed; Postemergence, 31 g ai/ha) | Plant response rating, Field Bindweed (field bindweed; Postemergence, 125 g ai/ha) | other results
CCCNC(=O)c1cc(CC)n(Cc2nc(C(F)(F)F)nn2C)n1 [Compound 109] | 10 | 10 | 40 | 0 | 0 | 30 | 0 | 0 | 10 | 30 | 30 | 50 | 30 | 40 | 50 | Plant response rating, Crabgrass, Brazil (crabgrass, Brazil; Postemergence, 250 g ai/ha): 70; Plant response rating, Barnyardgrass (barnyardgrass; Postemergence, 250 g ai/ha): 50; Plant response rating, Southern Sandbur (southern sandbur; Postemergence, 250 g ai/ha): 20; Plant response rating, Arrowleaf Sida (arrowleaf sida; Postemergence, 250 g ai/ha): 60; Plant response rating, Field Bindweed (field bindweed; Postemergence, 250 g ai/ha): 80; Plant response rating, Smartweed (smartweed; Postemergence, 16 g ai/ha): 20; Plant response rating, Smartweed (smartweed; Postemergence, 31 g ai/ha): 50; Plant response rating, Smartweed (smartweed; Postemergence, 125 g ai/ha): 70; Plant response rating, Smartweed (smartweed; Postemergence, 250 g ai/ha): 80
CCc1cc(-c2ccc(C(F)(F)F)cc2)nn1Cc1ccnc(C(F)(F)F)c1 [Compound 110] | 30 | 30 | 50 | 20 | 20 | 50 | 20 | 25 | 30 | 75 | 85 | 85 | 40 | 60 | 60 | Plant response rating, Crabgrass, Brazil (crabgrass, Brazil; postemergence, 62 g ai/ha): 30 and 40; Plant response rating, Crabgrass, Brazil (crabgrass, Brazil; postemergence, 8 g ai/ha): 20; Plant response rating, Barnyardgrass (barnyardgrass; postemergence, 8 g ai/ha): 10; Plant response rating, Southern Sandbur (southern sandbur; postemergence, 8 g ai/ha): 20; Plant response rating, Arrowleaf Sida (arrowleaf sida; postemergence, 62 g ai/ha): 40 and 75; Plant response rating, Arrowleaf Sida (arrowleaf sida; postemergence, 8 g ai/ha): 60; Plant response rating, Field Bindweed (field bindweed; postemergence, 62 g ai/ha): 40 and 50; Plant response rating, Field Bindweed (field bindweed; postemergence, 8 g ai/ha): 30; Plant response rating, Smartweed (smartweed; postemergence, 62 g ai/ha): 50; Plant response rating, Waterhemp_RES1 ([1]; Postemergence, 16 g ai/ha): 90; Plant response rating, Waterhemp_RES1 ([1]; Postemergence, 31 g ai/ha): 98; Plant response rating, Waterhemp_RES1 ([1]; Postemergence, 125 g ai/ha): 100; Plant response rating, Waterhemp_RES1 ([1]; postemergence, 62 g ai/ha): 90; Plant response rating, Waterhemp_RES1 ([1]; postemergence, 8 g ai/ha): 85
CCc1cc(C(=O)NCC(F)(F)F)nn1Cc1ccnc(Br)c1 [Compound 224] |  |  |  |  |  |  |  |  |  |  |  |  |  |  |  | Plant response rating, Cocklebur (cocklebur; 62 g ai/ha): 0; Plant response rating, Cocklebur (cocklebur; 125 g ai/ha): 0
